Active and inactive are the calls of the source. How the calls were made is not given here.
System: rodent carcinogenicity bioassays, tumor incidence
Assay: CCRIS carcinogenicity studies
In short: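 NCI-built, expert-reviewed records of carcinogenicity and related test outcomes (mutagenicity, tumor promotion/inhibition) compiled from published and report sources, historical span 1985-2011, not updated.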

Nc1ccc(-c2ccc(F)cc2)cc1
carcinogen call (Species: MOUSE, Strain/Sex: CBA/FEMALE, Route: GAVAGE, Dose: 0, 0.05 ML OF 1% IN ARACHIS OIL 2/WK FOR 6 MO FOR AN ESTIMATED TOTAL DOSE OF 0, 13 MG (STUDY DURATION: 119 WK), Dose: 0, 0.05 ML OF 1% IN ARACHIS OIL 2/WK FOR 6 MO FOR AN ESTIMATED TOTAL DOSE OF 0, 13 MG (STUDY DURATION: 119 WK), Tumor Site: Type of Lesion: LIVER: HEPATOMA): active; positive | carcinogen call (Species: MOUSE, Strain/Sex: CBA/MALE, Route: GAVAGE, Dose: 0, 0.05 ML OF 1% IN ARACHIS OIL 2/WK FOR 6 MO FOR AN ESTIMATED TOTAL DOSE OF 0, 13 MG (STUDY DURATION: 109 WK), Dose: 0, 0.05 ML OF 1% IN ARACHIS OIL 2/WK FOR 6 MO FOR AN ESTIMATED TOTAL DOSE OF 0, 13 MG (STUDY DURATION: 109 WK), Tumor Site: Type of Lesion: LIVER: HEPATOMA): active; positive

C[C@]12CC[C@H]3[C@@H](CCC4=CC(=O)CC[C@@]43C)[C@@H]1CC[C@@H]2O
carcinogen call (Species: MOUSE, Route: SUBCUTANEOUS IMPLANT, Tumor Site: Type of Lesion: MAMMARY GLAND, VAGINA): active; positive | carcinogen call (Species: MOUSE, Route: SUBCUTANEOUS, Tumor Site: Type of Lesion: GENITAL TRACT): active; positive

O=[N+]([O-])c1ccc2c3c1ccc1cccc(c13)[C@@H]1O[C@H]21
carcinogen call (Species: MOUSE, Strain/Sex: B6C3F1/FEMALE, Route: INTRAPERITONEAL, Dose: 0, 7 NMOL (TOTAL DOSE), 1/7, 2/7 AND 4/7 OF THE TOTAL DOSE ADMINISTERED WITHIN 24 HR OF BIRTH AND AT 8 AND 15 D OF AGE): inactive; negative | carcinogen call (Species: MOUSE, Strain/Sex: B6C3F1/MALE, Route: INTRAPERITONEAL, Dose: 0, 7 NMOL (TOTAL DOSE), 1/7, 2/7 AND 4/7 OF THE TOTAL DOSE ADMINISTERED WITHIN 24 HR OF BIRTH AND AT 8 AND 15 D OF AGE): inactive; negative

O=S(=O)(O)OCc1c2ccccc2cc2c1ccc1ccccc12
carcinogen call (Species: RAT, Strain/Sex: SPRAGUE-DAWLEY/FEMALE, Route: SUBCUTANEOUS, Dose: 0, 0.2 UMOL IN SESAME OIL:DMSO (9:1) 3/WK FOR 20 DOSES (STUDY DURATION: 52 WK), Tumor Site: Type of Lesion: INJECTION SITE: SARCOMA): active; positive

O=S(=O)(O)c1ccc2c(N=Nc3ccc(S(=O)(=O)O)c4ccccc34)c(O)c(S(=O)(=O)O)cc2c1
carcinogen call (Species: MOUSE, Strain/Sex: SWISS-WEBSTER/FEMALE, Route: DERMAL, Dose: 0, 1% IN 0.1 ML DISTILLED WATER 1/WK FOR 19.5 MO (STUDY DURATION: 19.5 MO)): inactive; negative | carcinogen call (Species: MOUSE, Strain/Sex: SWISS-WEBSTER/MALE, Route: DERMAL, Dose: 0, 1% IN 0.1 ML DISTILLED WATER 1/WK FOR 19.5 MO (STUDY DURATION: 19.5 MO)): inactive; negative | carcinogen call (Species: RAT, Strain/Sex: WISTAR/FEMALE, Route: ORAL, Dose: 0, 50, 250, 1250 MG/KG IN THE DIET TO PUPS OF PARENTS EXPOSED TO THE SAME DOSE LEVELS FOR 60 D PRIOR TO MATING AND CONTI, Dose: 0, 50, 250, 1250 MG/KG IN THE DIET TO PUPS OF PARENTS EXPOSED TO THE SAME DOSE LEVELS FOR 60 D PRIOR TO MATING AND CONTI): inactive; negative | carcinogen call (Species: RAT, Strain/Sex: WISTAR/MALE, Route: ORAL, Dose: 0, 50, 250, 1250 MG/KG IN THE DIET TO PUPS OF PARENTS EXPOSED TO THE SAME DOSE LEVELS FOR 60 D PRIOR TO MATING AND CONTI, Dose: 0, 50, 250, 1250 MG/KG IN THE DIET TO PUPS OF PARENTS EXPOSED TO THE SAME DOSE LEVELS FOR 60 D PRIOR TO MATING AND CONTI): inactive; negative

O=[N+]([O-])c1ccc2c(c1)Cc1ccccc1-2
carcinogen call (Species: RAT, Strain/Sex: WISTAR/MALE, Route: ORAL, Dose: 0, 0.24, 0.95, 2.37 MMOL/KG DIET FOR 11 MO FOLLOWED BY BASAL DIET FOR 13 MO (STUDY DURATION: 24 MO), Dose: 0, 0.24, 0.95, 2.37 MMOL/KG DIET FOR 11 MO FOLLOWED BY BASAL DIET FOR 13 MO (STUDY DURATION: 24 MO), Tumor Site: Type of Lesion: LIVER: HEPATOCELLULAR CARCINOMA, FORESTOMACH: SQUAMOUS CELL CARCINOMA, KIDNEY: CARCINOMA, Tumor Site: Type of Lesion: LIVER: HEPATOCELLULAR CARCINOMA, FORESTOMACH: SQUAMOUS CELL CARCINOMA, KIDNEY: CARCINOMA): active; positive

COS(C)(=O)=O
carcinogen call (Species: MOUSE, Route: INTRAPERITONEAL, Tumor Site: Type of Lesion: LUNG): active; positive | carcinogen call (Species: MOUSE, Route: ORAL, Tumor Site: Type of Lesion: LUNG, THYMUS GLAND): active; positive | carcinogen call (Species: RAT, Strain/Sex: SPRAGUE-DAWLEY/MALE, Route: INHALATION, Dose: 0, 50 PPM 6 HR/D 5 D/WK FOR 30 D (STUDY DURATION: LIFETIME), Tumor Site: Type of Lesion: NASAL CAVITY: TUMORS): active; positive

COc1c2occc2cc2ccc(=O)oc12
carcinogen call (Species: RAT, Strain/Sex: F344/F, Route: GAVAGE, Dose: 0, 37.5, 75 MG/KG IN CORN OIL 5D/WK FOR 103 WK (STUDY DURATION: 106 WK), Dose: 0, 37.5, 75 MG/KG IN CORN OIL 5D/WK FOR 103 WK (STUDY DURATION: 106 WK)): inactive; negative | carcinogen call (Species: RAT, Strain/Sex: F344/M, Route: GAVAGE, Dose: 0, 37.5, 75 MG/KG IN CORN OIL 5D/WK FOR 103 WK (STUDY DURATION: 106 WK), Dose: 0, 37.5, 75 MG/KG IN CORN OIL 5D/WK FOR 103 WK (STUDY DURATION: 106 WK), Tumor Site: Type of Lesion: SUBCUTANEOUS TISSUE: FIBROMA, SUBCUTANEOUS TISSUE: FIBROMA OR SARCOMA, LUNG: ALVEOLAR/BRONCHIOLAR ADENOMA, KIDNEY: TUBUL, Tumor Site: Type of Lesion: SUBCUTANEOUS TISSUE: FIBROMA, SUBCUTANEOUS TISSUE: FIBROMA OR SARCOMA, LUNG: ALVEOLAR/BRONCHIOLAR ADENOMA, KIDNEY: TUBUL): active; positive

c1ccc2c(c1)ccc1[nH]c3ccc4ccccc4c3c12
carcinogen call (Species: HAMSTER, Route: INTRATRACHEAL, Tumor Site: Type of Lesion: LUNG): active; positive | carcinogen call (Species: MOUSE, Route: DERMAL, Tumor Site: Type of Lesion: INTEGUMENTARY SYSTEM (SKIN), LIVER): active; positive | carcinogen call (Species: MOUSE, Route: INTRAVENOUS, Tumor Site: Type of Lesion: LUNG): active; positive | carcinogen call (Species: MOUSE, Route: ORAL, Tumor Site: Type of Lesion: FORESTOMACH, LIVER, LUNG, Tumor Site: Type of Lesion: FORESTOMACH, LIVER, LUNG): active; positive | carcinogen call (Species: MOUSE, Route: SUBCUTANEOUS, Tumor Site: Type of Lesion: INJECTION SITE, LUNG): active; positive | carcinogen call (Species: MOUSE, Strain/Sex: HSD:ICR(BR)/FEMALE, Route: DERMAL, Dose: 0, 50 NMOL IN 50 µL ACETONE 2/WK FOR 99 WK (STUDY DURATION: 99 WK), Tumor Site: Type of Lesion: SKIN: TUMOR, LIVER: TUMOR): active; positive | carcinogen call (Species: MOUSE, Strain/Sex: STRAIN-A/MALE, Route: INTRAPERITONEAL, Dose: 0, 5, 10, 20, 40 MG/KG BW IN 0.2 ML TRICAPRYLIN ONCE (STUDY DURATION: 8 MO), Dose: 0, 5, 10, 20, 40 MG/KG BW IN 0.2 ML TRICAPRYLIN ONCE (STUDY DURATION: 8 MO), Tumor Site: Type of Lesion: LUNG: ADENOMA): active; positive | carcinogen call (Species: Mouse, Strain/Sex: XVIInc/Z homozygous/Female (50 or 162/Group), Route: Subcutaneous, Dose: 3 x 0.3 mg (162 animals) or 34 x 0.05 mg (50 animals) dissolved in olive oil, Tumor Site: Type of Lesion: Liver: Hepatoma (100%), Sarcoma (70%)): active; positive (historical controls only; reported incidence of liver tumors <2% at 2

CCC(Cl)C(Cl)C(Cl)CC(Cl)C(Cl)C(C)Cl (centres undefined)
carcinogen call (Species: MOUSE, Strain/Sex: B6C3F1/FEMALE, Route: GAVAGE, Dose: 0, 125, 250 MG/KG IN CORN OIL 5 D/WK FOR 103 WK, Dose: 0, 125, 250 MG/KG IN CORN OIL 5 D/WK FOR 103 WK, Tumor Site: Type of Lesion: LIVER: HEPATOCELLULAR ADENOMA, HEPATOCELLULAR ADENOMA OR CARCINOMA, THYROID GLAND: FOLLICULAR CELL ADENOMA, FOLLICULAR C): active; positive | carcinogen call (Species: MOUSE, Strain/Sex: B6C3F1/MALE, Route: GAVAGE, Dose: 0, 125, 250 MG/KG IN CORN OIL 5 D/WK FOR 103 WK, Dose: 0, 125, 250 MG/KG IN CORN OIL 5 D/WK FOR 103 WK, Tumor Site: Type of Lesion: LIVER: HEPATOCELLULAR ADENOMA, HEPATOCELLULAR ADENOMA OR CARCINOMA): active; positive | carcinogen call (Species: RAT, Strain/Sex: F344/FEMALE, Route: GAVAGE, Dose: 0, 312, 625 MG/KG IN CORN OIL 5 D/WK FOR 104 WK, Dose: 0, 312, 625 MG/KG IN CORN OIL 5 D/WK FOR 104 WK, Tumor Site: Type of Lesion: LIVER: NEOPLASTIC NODULE, NEOPLASTIC NODULE OR HEPATOCELLULAR CARCINOMA, THYROID GLAND: FOLLICULAR CELL ADENOMA OR CARCI): active; positive | carcinogen call (Species: RAT, Strain/Sex: F344/MALE, Route: GAVAGE, Dose: 0, 312, 625 MG/KG IN CORN OIL 5 D/WK FOR 104 WK, Dose: 0, 312, 625 MG/KG IN CORN OIL 5 D/WK FOR 104 WK, Tumor Site: Type of Lesion: LIVER: NEOPLASTIC NODULE, NEOPLASTIC NODULE OR HEPATOCELLULAR CARCINOMA, KIDNEY: TUBULAR CELL ADENOMA OR ADENOCARCINOMA): active; positive

Source: PubChem BioAssay AID1259411 (Chemical Carcinogenesis Research Information System (CCRIS), 2018)
